Molecules are shown by their SMILES.

For test [1], the target named is Mitogen-activated protein kinase 14 (Homo sapiens, UniProt Q16539). Set-up: species or system Escherichia coli.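 Further: inhibition of p38alpha enzyme activity in a biochemical kinase assay, with myelin basic protein serving as substrate; in other assays of this panel Not Active means under 50% inhibition at 10 µM.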
The target in test [2] is Vascular endothelial growth factor receptor 1 (Homo sapiens, UniProt P17948). Type of test: cell-based. Conditions: huvec. Further: in other assays of this panel Not Active means under 50% inhibition at 10 µM.
Test [3] deals with Beta-1 adrenergic receptor (Homo sapiens, UniProt P08588). Kind of test: DRUGMATRIX: Adrenergic beta1 radioligand binding (ligand: [125I] Cyanopindolol). Type of test: cell membranes, CHO-K1, Membrane. To be noted: cho-k1; Not Active = under 50% inhibition at 10 µM.
In test [4] the target is 5-hydroxytryptamine receptor 4 (Cavia porcellus, UniProt O70528). In kind it is cell membranes, Dunkin-Hartley, Striatum, Membrane. Further: in other assays of this panel Not Active means under 50% inhibition at 10 µM.
Test [5] has as its target T1, Alpha-2A adrenergic receptor (Homo sapiens, UniProt P08913). Further: in other assays of this panel Not Active means under 50% inhibition at 10 µM.
T1 sequence (P08913 whole entry): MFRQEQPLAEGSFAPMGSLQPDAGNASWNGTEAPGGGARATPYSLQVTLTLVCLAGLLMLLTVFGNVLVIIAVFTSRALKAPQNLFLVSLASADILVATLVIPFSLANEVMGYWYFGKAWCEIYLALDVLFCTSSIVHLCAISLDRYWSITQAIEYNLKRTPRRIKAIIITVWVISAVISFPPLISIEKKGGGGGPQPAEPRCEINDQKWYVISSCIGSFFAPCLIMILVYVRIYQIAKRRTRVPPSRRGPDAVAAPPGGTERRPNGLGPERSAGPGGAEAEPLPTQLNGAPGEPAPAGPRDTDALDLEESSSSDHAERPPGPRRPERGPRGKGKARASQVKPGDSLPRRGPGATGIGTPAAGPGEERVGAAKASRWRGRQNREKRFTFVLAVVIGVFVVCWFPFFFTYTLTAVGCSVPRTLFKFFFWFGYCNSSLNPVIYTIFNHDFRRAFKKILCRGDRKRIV
In kind it is cell membranes, Sf9, Membrane. To be noted: for Ki: read-out: Ki.

A short description of test [6]: DRUGMATRIX: Glutamate, NMDA, Phencyclidine radioligand binding (ligand: [3H] TCP). Type of test: cell membranes, Rattus norvegicus, Wistar, Cerebral cortex, Membrane. To be noted: Not Active = under 50% inhibition at 10 µM.
The target in test [7] is Beta-2 adrenergic receptor (Homo sapiens, UniProt P07550). Nature of the test: DRUGMATRIX: Adrenergic beta2 radioligand binding (ligand: [3H] CGP-12177). Type of test: cell membranes, CHO, Membrane. Conditions: cho; Not Active = under 50% inhibition at 10 µM.
Sequence of Beta-2 adrenergic receptor (P07550 whole entry): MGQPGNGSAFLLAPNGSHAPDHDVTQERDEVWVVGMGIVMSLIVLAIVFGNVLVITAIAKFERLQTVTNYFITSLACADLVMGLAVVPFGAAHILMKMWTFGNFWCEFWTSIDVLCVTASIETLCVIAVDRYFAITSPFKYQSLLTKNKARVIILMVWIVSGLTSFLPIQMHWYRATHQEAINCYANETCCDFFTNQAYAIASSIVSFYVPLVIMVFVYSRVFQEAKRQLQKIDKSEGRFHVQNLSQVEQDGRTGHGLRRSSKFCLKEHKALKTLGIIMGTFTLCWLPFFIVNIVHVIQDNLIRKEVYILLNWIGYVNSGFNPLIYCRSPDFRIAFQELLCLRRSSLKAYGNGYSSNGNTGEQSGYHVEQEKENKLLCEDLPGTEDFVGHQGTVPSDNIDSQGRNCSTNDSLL

Sequence of 5-hydroxytryptamine receptor 4 (O70528 whole entry): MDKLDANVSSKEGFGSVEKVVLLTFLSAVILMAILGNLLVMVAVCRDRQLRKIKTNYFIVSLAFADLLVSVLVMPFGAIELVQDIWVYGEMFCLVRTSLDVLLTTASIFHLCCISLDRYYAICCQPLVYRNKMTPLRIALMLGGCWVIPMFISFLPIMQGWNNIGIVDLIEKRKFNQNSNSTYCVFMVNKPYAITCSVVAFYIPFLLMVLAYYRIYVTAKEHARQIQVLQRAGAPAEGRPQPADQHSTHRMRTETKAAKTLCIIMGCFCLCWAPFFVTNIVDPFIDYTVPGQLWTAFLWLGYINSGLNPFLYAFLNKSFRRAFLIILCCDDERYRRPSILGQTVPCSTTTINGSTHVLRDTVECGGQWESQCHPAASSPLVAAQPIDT
Sequence of Vascular endothelial growth factor receptor 1 (P17948 whole entry): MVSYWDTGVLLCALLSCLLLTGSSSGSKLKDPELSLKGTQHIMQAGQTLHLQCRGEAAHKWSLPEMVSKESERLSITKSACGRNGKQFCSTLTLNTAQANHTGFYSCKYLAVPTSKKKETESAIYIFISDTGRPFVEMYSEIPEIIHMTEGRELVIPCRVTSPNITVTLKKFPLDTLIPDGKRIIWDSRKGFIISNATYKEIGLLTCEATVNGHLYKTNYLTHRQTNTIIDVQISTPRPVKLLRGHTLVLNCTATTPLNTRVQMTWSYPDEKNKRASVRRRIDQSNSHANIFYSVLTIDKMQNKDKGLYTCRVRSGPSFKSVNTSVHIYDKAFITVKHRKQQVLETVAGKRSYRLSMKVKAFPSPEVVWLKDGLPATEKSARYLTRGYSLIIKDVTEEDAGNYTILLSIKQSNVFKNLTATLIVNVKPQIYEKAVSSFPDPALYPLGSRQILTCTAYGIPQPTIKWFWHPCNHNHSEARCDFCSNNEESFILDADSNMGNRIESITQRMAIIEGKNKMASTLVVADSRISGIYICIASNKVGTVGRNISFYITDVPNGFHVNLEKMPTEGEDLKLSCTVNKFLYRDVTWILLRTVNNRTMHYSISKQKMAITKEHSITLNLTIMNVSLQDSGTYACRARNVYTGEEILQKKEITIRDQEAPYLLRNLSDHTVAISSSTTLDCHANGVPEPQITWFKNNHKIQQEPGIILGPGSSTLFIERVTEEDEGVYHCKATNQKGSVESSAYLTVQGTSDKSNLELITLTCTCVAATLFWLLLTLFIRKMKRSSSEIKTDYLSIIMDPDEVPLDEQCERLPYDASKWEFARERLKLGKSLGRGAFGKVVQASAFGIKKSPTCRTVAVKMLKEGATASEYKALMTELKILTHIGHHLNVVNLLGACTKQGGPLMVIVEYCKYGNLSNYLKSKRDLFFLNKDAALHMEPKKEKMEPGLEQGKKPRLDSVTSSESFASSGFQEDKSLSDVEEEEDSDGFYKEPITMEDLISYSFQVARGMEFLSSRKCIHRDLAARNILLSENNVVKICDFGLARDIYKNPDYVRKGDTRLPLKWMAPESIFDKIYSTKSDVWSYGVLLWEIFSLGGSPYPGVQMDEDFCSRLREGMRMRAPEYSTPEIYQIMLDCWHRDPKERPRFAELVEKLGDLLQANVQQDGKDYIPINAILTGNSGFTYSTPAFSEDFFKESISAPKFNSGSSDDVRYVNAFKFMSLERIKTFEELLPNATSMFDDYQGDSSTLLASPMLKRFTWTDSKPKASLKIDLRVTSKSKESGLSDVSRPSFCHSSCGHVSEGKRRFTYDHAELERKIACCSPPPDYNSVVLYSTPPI
Sequence of Mitogen-activated protein kinase 14 (Q16539 whole entry): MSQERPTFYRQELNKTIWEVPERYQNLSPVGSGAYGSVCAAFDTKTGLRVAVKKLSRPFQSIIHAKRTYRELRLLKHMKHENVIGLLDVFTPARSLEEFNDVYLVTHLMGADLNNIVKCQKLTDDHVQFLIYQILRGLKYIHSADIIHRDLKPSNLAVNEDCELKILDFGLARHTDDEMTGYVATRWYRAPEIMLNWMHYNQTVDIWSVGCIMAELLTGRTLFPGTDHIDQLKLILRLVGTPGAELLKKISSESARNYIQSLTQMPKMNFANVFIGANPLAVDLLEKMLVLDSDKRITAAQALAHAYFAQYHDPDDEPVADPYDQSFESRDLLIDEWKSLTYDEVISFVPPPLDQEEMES
Sequence of Beta-1 adrenergic receptor (P08588 whole entry): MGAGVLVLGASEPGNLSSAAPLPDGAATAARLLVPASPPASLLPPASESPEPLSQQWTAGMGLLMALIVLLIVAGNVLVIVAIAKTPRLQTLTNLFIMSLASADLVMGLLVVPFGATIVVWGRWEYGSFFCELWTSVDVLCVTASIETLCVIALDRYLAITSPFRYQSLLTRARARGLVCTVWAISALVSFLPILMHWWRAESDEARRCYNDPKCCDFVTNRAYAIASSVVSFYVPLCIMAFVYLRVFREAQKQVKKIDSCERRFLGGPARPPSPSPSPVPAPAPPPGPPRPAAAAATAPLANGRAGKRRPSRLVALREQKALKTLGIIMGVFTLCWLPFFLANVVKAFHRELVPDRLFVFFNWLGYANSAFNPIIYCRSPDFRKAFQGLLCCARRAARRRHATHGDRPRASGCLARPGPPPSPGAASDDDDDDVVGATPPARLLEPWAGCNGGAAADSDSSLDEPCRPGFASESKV

Usually IC50 stands for the point on the concentration scale where inhibition reaches its midpoint. A word on the Ki: it is a measure of affinity in units of concentration, obtained from inhibition or displacement. Regarding `c1ccc(Cn2ccnc2)cc1`, the IC50 entry in test [1], in test [2], in test [3], in test [4], in test [5] (sf9) and in test [6] was “Not Active” throughout. Also, the concentration for half-maximal inhibition (IC50) result in test [7] was “Not Active”. In addition, the Ki entry in test [6] is “Not Active”.
For the compound `C[N+](C)(C)CCOP(=O)([O-])OC[C@H](O)CO`, the 50% inhibitory concentration (IC50) result in test [1], in test [2], in test [3], in test [4], in test [5] (sf9) and in test [6] was “Not Active” throughout. Further, the IC50 entry in test [7] was “Not Active”. The inhibition constant Ki result in test [6] was “Not Active”.
With `NC(=O)CN1CCCC1=O`, the IC50 entry in test [1], in test [2], in test [3], in test [4], in test [5] (sf9) and in test [6] was “Not Active” in each case. In test [7], the IC50 entry is on record as “Not Active”. Moreover, in test [6], the Ki result was “Not Active”.
Consider `OC[C@H]1OC2C3[C@@H](CO)OC(O[C@H]4[C@H](O)[C@@H](O)[C@@H](O[C@H]5[C@H](O)[C@@H](O)[C@@H](O[C@H]6[C@H](O)[C@@H](O)[C@@H](O[C@H]7[C@H](O)[C@@H](O)[C@@H](O[C@H]8[C@H](O)[C@@H](O)[C@@H](O[C@H]9[C@H](O)[C@@H](O)C(OC1[C@H](O)[C@H]2O)O[C@@H]9CO)O[C@@H]8CO)O[C@@H]7CO)O[C@@H]6CO)O[C@@H]5CO)O[C@@H]4CO)[C@H](O)[C@H]3O`, for which the IC50 result in test [1], in test [2], in test [3], in test [4], in test [5] (sf9) and in test [6] was “Not Active” in each case. Moreover, in test [7], the IC50 entry was “Not Active”. The inhibition constant (Ki) entry in test [6] is “Not Active”.
`CN(CCOc1ccc(C[C@H](Nc2ccccc2C(=O)c2ccccc2)C(=O)O)cc1)c1ccccn1`: the concentration for half-maximal inhibition (IC50) result in test [1], in test [2], in test [3], in test [4], in test [5] (sf9) and in test [6] was “Not Active” throughout. Moreover, in test [7], the IC50 result is recorded as “Not Active”. Further, the Ki entry in test [6] is “Not Active”.
With `O=c1[nH]c2ccccc2c2ccccc12`, the IC50 result in test [1], in test [2], in test [3], in test [4], in test [5] (sf9) and in test [6] was “Not Active” each time. The IC50 result in test [7] is on record as “Not Active”. Besides, the Ki entry in test [6] is recorded as “Not Active”.
Regarding `CO[C@H]1O[C@@H]2O[C@@]3(C)CC[C@H]4[C@H](C)CC[C@@H]([C@H]1C)[C@@]24OO3`, the half-inhibitory concentration (IC50) result in test [1], in test [2], in test [3], in test [4], in test [5] (sf9) and in test [6] was “Not Active” throughout. Moreover, in test [7], the concentration for half-maximal inhibition (IC50) entry is given as “Not Active”. For the same compound, in test [6], the Ki entry is given as “Not Active”.
For the compound `Nc1ccc(Cc2ccc(N)cc2)cc1`, the half-maximal inhibitory concentration (IC50) entry in test [1], in test [2], in test [3], in test [4], in test [5] (sf9) and in test [6] was “Not Active” in each case. Moreover, the concentration for half-maximal inhibition (IC50) result in test [7] was “Not Active”. The Ki entry in test [6] is on record as “Not Active”.
On to `C=C(Cl)Cl` [1,1-DICHLOROETHENE], for which the IC50 result in test [1], in test [2], in test [3], in test [4], in test [5] (sf9) and in test [6] was “Not Active” in each case. In test [7], the IC50 result is “Not Active”. For the same compound, the Ki result in test [6] was “Not Active”.
For `CC(=O)Nc1ccc2c(c1)Cc1ccccc1-2` [2-ACETYLAMINOFLUORENE], the IC50 entry in test [1] is “Not Active”; in test [2] it was “Not Active”; in test [3], “Not Active”; in test [4], “Not Active”; in test [5] (read-out: IC50), 21100 nM; in test [6] it was “Not Active”. The 50% inhibitory concentration (IC50) entry in test [7] is listed as “Not Active”. Further, the figures for the inhibitory constant (Ki) in test [5] and in test [6] were 7900 nM and “Not Active”, respectively.
Consider `O=C(Nc1ccc(Cl)c(Cl)c1)c1cc(Cl)cc(Cl)c1O` [3,3',4',5-TETRACHLOROSALICYLANILIDE], for which the IC50 in test [1] (read-out: IC50) is 2180 nM; in test [2] it was “Not Active”; in test [3] it was “Not Active”; in test [4], “Not Active”; in test [5] (sf9), “Not Active”; in test [6], “Not Active”. Moreover, the concentration for half-maximal inhibition (IC50) result in test [7] is “Not Active”. Further, the inhibition constant Ki result in test [6] was “Not Active”.
For `O=C(O)COC(=O)Cc1ccccc1Nc1c(Cl)cccc1Cl` [ACECLOFENAC], the half-inhibitory concentration (IC50) result in test [1], in test [2], in test [3], in test [4], in test [5] (sf9) and in test [6] was “Not Active” throughout. The IC50 entry in test [7] is “Not Active”. Moreover, the inhibitory constant (Ki) entry in test [6] is reported as “Not Active”.
For the compound `CCN1C[C@]2(COC)[C@H](O)C[C@H](OC)[C@@]34[C@@H]5C[C@@]6(O)[C@H](OC(=O)c7ccccc7)[C@@H]5[C@@](OC(C)=O)([C@@H]([C@H](OC)[C@H]23)[C@@H]14)[C@@H](O)[C@@H]6OC` [ACONITINE], the IC50 entry in test [1], in test [2], in test [3], in test [4], in test [5] (sf9) and in test [6] was “Not Active” each time. The IC50 result in test [7] is “Not Active”. Further, the Ki entry in test [6] is given as “Not Active”.
Take `CCO` [ALCOHOL]: the 50% inhibitory concentration (IC50) entry in test [1], in test [2], in test [3], in test [4], in test [5] (sf9) and in test [6] was “Not Active” each time. Further, in test [7], the half-inhibitory concentration (IC50) result was “Not Active”. Moreover, in test [6], the Ki entry is “Not Active”.
`CC(C)NCC(O)COc1ccc(CC(N)=O)cc1` (stereo unspecified) [ATENOLOL]: the 50% inhibitory concentration (IC50) result in test [1], in test [2], in test [4], in test [5] (sf9) and in test [6] was “Not Active” in each case. Besides, the inhibitory constant (Ki) entry in test [6] is given as “Not Active”.
As to `Cc1c(N)nc([C@H](CC(N)=O)NC[C@H](N)C(N)=O)nc1C(=O)N[C@H](C(=O)N[C@H](C)[C@@H](O)[C@H](C)C(=O)N[C@H](C(=O)NCCc1nc(-c2nc(C(=O)NCCC[S+](C)C)cs2)cs1)[C@@H](C)O)[C@@H](O[C@@H]1O[C@@H](CO)[C@@H](O)[C@H](O)[C@@H]1O[C@H]1O[C@H](CO)[C@@H](O)[C@H](OC(N)=O)[C@@H]1O)c1c[nH]cn1.[Br-]` [BLEOMYCIN A2], the IC50 result in test [1], in test [2], in test [4], in test [5] (sf9), in test [6] and in test [7] was “Not Active” throughout. Further, in test [6], the Ki entry was “Not Active”.
On to `COc1ccccc1OCCNCC(O)COc1cccc2[nH]c3ccccc3c12` (stereo unspecified) [CARVEDILOL], for which the IC50 entry is “Not Active” in test [1]; “Not Active” in test [2]; 1090 nM in test [4] (read-out: IC50); 106 nM in test [5] (read-out: IC50); “Not Active” in test [6]. For the same compound, the Ki in test [4] (read-out: Ki) is 181 nM; in test [5], 40 nM; in test [6] it was “Not Active”.
For `CNC[C@H](O)c1ccc(O)c(O)c1` [EPINEPHRINE], the IC50 result in test [1], in test [2], in test [3], in test [4] and in test [6] was “Not Active” throughout. Further, the inhibition constant (Ki) result in test [6] was “Not Active”.
`CCN(CCO)CCCC(C)Nc1ccnc2cc(Cl)ccc12` (stereo unspecified) [HYDROXYCHLOROQUINE]: the concentration for half-maximal inhibition (IC50) result in test [1], in test [2], in test [4], in test [5] (sf9), in test [6] and in test [7] was “Not Active” each time. For the same compound, the Ki entry in test [6] was “Not Active”.
In the case of `Cc1cc(C(C)(C)C)c(O)c(C)c1CC1=NCCN1` [OXYMETAZOLINE], the 50% inhibitory concentration (IC50) result in test [1], in test [2], in test [3], in test [4], in test [6] and in test [7] was “Not Active” throughout. Further, the inhibition constant (Ki) result in test [6] was “Not Active”.
Regarding `CC(CN1c2ccccc2Sc2ccccc21)N(C)C` (stereo unspecified) [PROMETHAZINE], the IC50 result in test [1], in test [2], in test [3], in test [4], in test [6] and in test [7] was “Not Active” in each case. Besides, the inhibition constant Ki entry in test [6] is reported as “Not Active”.

Values taken from ChEMBL document CHEMBL1909046, “DrugMatrix in vitro pharmacology data”.
